Measured values as given in patent US20010014345A1, “MATERIAL, METHOD AND APPARATUS FOR INHIBITING BACTERIAL GROWTH IN AN AQUEOUS MEDIUM” (priority 1995, published 2001).
Where “and” joins values, the source holds several entries; their conditions need not be identical. Equal entries are not always repeated. Where two headings read alike, the source gives them in different places. One block for each compound: values may come before it.

What was measured:
[1] = system: Pseudomonas aeruginosa; assay: Biocide efficiency (B.E.) of immobilised biocides in recirculating column test; format: cell-based
[2] = physchem
[3] = Presence or absence of free biocide in filter-sterilised culture after contact with active beads (MS and/or HPLC; leaching); format: physicochemical
[4] = system: Pseudomonas aeruginosa; assay: Recirculating column test of immobilised biocide (active beads), viable bacterial counts / growth curve; format: cell-based; details: active beads on Amberlite XAD-4 or XAD-2, 10x1 cm column, after 24 hours, FIG. 2
[5] = Partition coefficients between octanol and water by UV/visible absorption
[6] = column length 10 cm, biocide immobilised on Amberlite XAD-4, 24 h, 30° C., 13.5 ml/min

logP [2]: 0.18
Compound: O=[N+]([O-])C(Br)(CO)CO [Bronopol]
B.E. (t-24 h) [1, 6]: −0.80

Compound: CCCCCCCCCCCCCCCCCCn1sc(Cl)cc1=O [Compound 4, 5-chloro-2-n-octadecyl-isothiazolin-3-one]
B.E. (t-24 h) [1]: 0.70 and 0.82 and 0.73 and 0.99 and 0.98

Compound: CCCCCCCCCCCCCCCCn1sc2ccccc2c1=O [Compound 2, 2-n-hexadecyl-benzoisothiazolin-3-one]
B.E. (t-24 h) ([1]; column length 10 cm, biocide immobilised on Amberlite XAD-2, 24 h, 30° C., 13.5 ml/min): 0.84
B.E. (t-24 h) [1, 6]: 0.68 and 1.02 and 0.82 and 0.91
B.E. (t-24 h) ([1]; column length 20 cm, biocide immobilised on Amberlite XAD-4, 24 h): 0.99 and 0.64 and 0.75
B.E. (t-24 h) ([1]; column length 30 cm, biocide immobilised on Amberlite XAD-4, 24 h): 0.64 and 0.86
B.E. (t-24 h) ([1]; column length 40 cm, biocide immobilised on Amberlite XAD-4, 24 h): 0.90

Compound: CCCCCCCCn1sccc1=O [Compound 5, 2-n-octyl-isothiazolin-3-one]
B.E. (t-24 h) [1]: 0.80 and 0.60
Present (MS): free biocide in solution [3]: trace

Compound: CCCCCCCCCCCC[N+](C)(C)CCOc1ccccc1 [Domiphen]
logP [2]: 1.7

Compound: CCCCCCCCn1sc2ccccc2c1=O [Compound 1, 2-n-octylbenzoisothiazolin-3-one]
bacterial population versus blank bead controls [4]: significantly lower
B.E. (t-24 h) [1, 6]: 0.48

logP [2]: -1.3
Compound: O=c1[nH]sc2ccccc12 [Proxel]

P (partition coefficient between octanol and water) ([5]; 25° C., UV/visible absorption): ˜4.5
logP ([5]; n-octanol/water): 0.6
Compound: Cn1sc2c(c1=O)CCC2 [Promexal]
